# Laboratory results taken from paper PMC4047164 (Biochimica et biophysica acta, 2014).
# Like-named read-outs stand apart in the source and are kept apart here.
# What was measured:
# S. aureus cells = test: Membrane potential of intact cells by DisC3; type: cell-based
# NdhC [1] = biological target: T1, NdhC (Staphylococcus aureus, UniProt Q2YWP9); test: Inhibition of purified NdhC NADH dehydrogenase activity with DMN in detergent; type: biochemical, S. aureus; conditions: read-out: % of Inhibition by 50 μM phenothiazines, NdhC, DMN
# S. aureus [2] = test: Drug susceptibility determination; type: cell-based; conditions: Staphylococcus aureus, 20 h
# S. aureus [3] = conditions: cited from earlier work
# [4] = system: inverted membrane vesicles from E. coli; type: biochemical
# [5] = system: inverted membrane vesicles from E. coli; type: biochemical; conditions: NADH-energized vesicles
# NdhC [6] = biological target: T1, NdhC; test: biochemical; parameters: species or system S. aureus; conditions: read-out: % of Inhibition by 50 μM phenothiazines, NdhC, Q8
# S. aureus membranes = test: NADH-driven respiration; type: biochemical; conditions: for Inhibition of NADH-dependent oxygen consumption: 50 μM compound, membranes ∼ 200 μg/ml
# NdhF [7] = biological target: T2, NdhF (Staphylococcus aureus, UniProt Q2FZW0); test: biochemical; conditions: read-out: % of Inhibition by 50 μM phenothiazines, NdhF, Q8
# NdhF [8] = biological target: T2, NdhF; test: biochemical; conditions: read-out: % of Inhibition by 50 μM phenothiazines, NdhF, DMN
# [9] = system: isolated rat liver mitochondria; conditions: cited from earlier work
# [10] = control agents, Figure S5, concentration not given
# [11] = Figure 5 legend, concentration not given
# T1 sequence (Q2YWP9 whole entry): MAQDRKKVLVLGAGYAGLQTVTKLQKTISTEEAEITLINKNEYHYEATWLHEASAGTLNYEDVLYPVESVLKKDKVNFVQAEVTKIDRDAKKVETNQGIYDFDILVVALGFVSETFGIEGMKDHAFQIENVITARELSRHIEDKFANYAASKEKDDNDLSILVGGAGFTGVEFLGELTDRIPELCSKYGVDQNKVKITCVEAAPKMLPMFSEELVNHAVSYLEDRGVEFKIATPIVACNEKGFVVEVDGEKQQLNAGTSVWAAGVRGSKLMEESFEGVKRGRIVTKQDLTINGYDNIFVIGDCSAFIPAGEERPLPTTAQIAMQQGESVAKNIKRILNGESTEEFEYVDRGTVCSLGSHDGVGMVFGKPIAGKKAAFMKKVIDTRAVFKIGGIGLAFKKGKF
Structure (SMILES),inhibition at 50 µM (NdhC [1]) [%],MIC (S. aureus [2]) [µM],reported MIC values for inhibition of growth (S. aureus [3]) [µM],"Effect on pH gradient (ACMA fluorescence) [4, 10]","Effect on membrane potential (Oxonol VI fluorescence) [5, 11]",Inhibition of NADH-dependent oxygen consumption (S. aureus membranes),further results
N#CC(C#N)=NNc1cccc(Cl)c1 [CCCP],,,,,,,"Effect on membrane potential (DisC3(5) fluorescence) (S. aureus cells; 1 μM CCCP, validation control): rapid collapse of the membrane potential"
"CN(C)CCCN1c2ccccc2Sc2ccc(Cl)cc21 [CPZ, Chlorpromazine]",73 ± 8,170 ± 15,90 to 125,,,,
C(=NC1CCCCC1)=NC1CCCCC1 [DCCD],,,,collapse of the pH gradient,,,
CC(C)(C)c1cc(C=C(C#N)C#N)cc(C(C)(C)C)c1O [SF6847],,,,collapse of the pH gradient,dissipation of the membrane potential,,
"CN1CCN(CCCN2c3ccccc3Sc3ccc(C(F)(F)F)cc32)CC1 [TPZ, Trifluoperazine]",54 ± 6,70 ± 10,40 to 60,,,fully inhibited,"inhibition at 50 µM (NdhC [6]): 80 ± 10%; NADH-driven respiration in presence of 50 μM TPZ (S. aureus membranes; 50 μM TPZ, uninhibited activity 659 ± 28): 8 ± 1 μmole O2 mg^-1 protein s^-1; IC50 (S. aureus membranes; read-out: IC50, respiration of S. aureus membranes, NADH as electron donor): 18.5 ± 3 µM; inhibition at 50 µM (NdhF [7]): 0%; inhibition at 50 µM (NdhF [8]): 0%"
"CSc1ccc2c(c1)N(CCC1CCCCN1C)c1ccccc1S2 (stereo not shown) [TZ, Thioridazine]",,70 ± 9,40 to 60,,dissipation of the membrane potential,fully inhibited,"Effect on membrane potential (DisC3(5) fluorescence) (S. aureus cells; 50 μM TZ): rapid collapse of the membrane potential; Effect on membrane potential (DisC3(5) fluorescence) (S. aureus cells; different TZ concentrations, immediate, concentration-dependent (Figure 3A)): collapse of the membrane potential; Effect on pH gradient (ACMA fluorescence) ([4]; 3 μM TZ, gradient generated by the ATPase or by succinate-driven respiration): completely collapse the pH gradient; Effect on membrane potential (Oxonol VI fluorescence) ([5]; 10 μM TZ): completely dissipated; Uncoupler activity [9]: weak uncoupler of oxidative phosphorylation"
